The CheMixHub viscosity set
“And” between values parts separate entries of the source, which are not always exact repeats. Equal entries are not always repeated. ± gives the uncertainty stated by the source.

Experiment: xn = mol fraction of the nth substance listed

C[N+](C)(C)CCO.[Cl-] + OCC(O)CO
Conditions	viscosity
293.15 K, 100 kPa, x1 = 0.3	519 ± 41 mPa·s
293.15 K, 100 kPa, x1 = 0.333	561.4 ± 28 mPa·s
293.15 K, 101.3 kPa, x2 = 0.7	516.1 ± 52 mPa·s
293.42 K, 101.33 kPa, x2 = 0.8	167.1 ± 49 mPa·s
293.43 K, 101.33 kPa, x2 = 0.7	267.9 ± 72 mPa·s
294.19 K, 101.33 kPa, x2 = 0.7	254.1 ± 64 mPa·s
294.4 K, 101.33 kPa, x2 = 0.8	156.8 ± 36 mPa·s
295.2 K, 101.33 kPa, x2 = 0.8	148.2 ± 43 mPa·s
295.27 K, 101.33 kPa, x2 = 0.7	236.6 ± 62 mPa·s
296.05 K, 101.33 kPa, x2 = 0.8	138.9 ± 40 mPa·s
296.09 K, 101.33 kPa, x2 = 0.7	222.7 ± 57 mPa·s
296.85 K, 101.33 kPa, x2 = 0.7	209.9 ± 53 mPa·s
296.95 K, 101.33 kPa, x2 = 0.8	130 ± 37 mPa·s
297.09 K, 101 kPa, x1 = 0.333	348.4 ± 12 mPa·s
297.68 K, 101.33 kPa, x2 = 0.8	123.2 ± 35 mPa·s
297.78 K, 101.33 kPa, x2 = 0.7	195.3 ± 49 mPa·s
298.15 K, 100 kPa, x1 = 0.3	368 ± 25 mPa·s
298.15 K, 100 kPa, x1 = 0.33	348 ± 23 mPa·s
298.15 K, 100 kPa, x1 = 0.333	259 ± 9 mPa·s and 386.3 ± 18 mPa·s
298.15 K, 101 kPa, x1 = 0.167	304 ± 32 mPa·s
298.15 K, 101 kPa, x1 = 0.2	353.5 ± 30 mPa·s and 244 ± 26 mPa·s
298.15 K, 101 kPa, x1 = 0.25	338.7 ± 29 mPa·s and 261 ± 28 mPa·s
298.15 K, 101 kPa, x1 = 0.33	318.1 ± 26 mPa·s
298.15 K, 101 kPa, x1 = 0.333	200 ± 21 mPa·s and 283.2 ± 13 mPa·s
298.15 K, 101.33 kPa, x2 = 0.7	301 ± 34 mPa·s
298.73 K, 101.33 kPa, x2 = 0.7	184.5 ± 46 mPa·s
298.74 K, 101.33 kPa, x2 = 0.8	115.2 ± 33 mPa·s
299.46 K, 101.33 kPa, x2 = 0.7	174.9 ± 43 mPa·s
299.66 K, 101.33 kPa, x2 = 0.8	108.3 ± 30 mPa·s
300.32 K, 101.33 kPa, x2 = 0.7	163 ± 40 mPa·s
300.43 K, 101.33 kPa, x2 = 0.8	101.9 ± 28 mPa·s
301.05 K, 101.33 kPa, x2 = 0.8	96.5 ± 26 mPa·s
301.22 K, 101.33 kPa, x2 = 0.7	152.2 ± 37 mPa·s
301.89 K, 101 kPa, x1 = 0.333	263.5 ± 8.4 mPa·s
302.07 K, 101.33 kPa, x2 = 0.7	144.8 ± 34 mPa·s
302.09 K, 101.33 kPa, x2 = 0.8	90.62 ± 25 mPa·s
303 K, 101 kPa, x1 = 0.3333	428.4 ± 32 mPa·s
303.03 K, 101.33 kPa, x2 = 0.7	137 ± 32 mPa·s
303.04 K, 101.33 kPa, x2 = 0.8	85.38 ± 24 mPa·s
303.15 K, 100 kPa, x1 = 0.33	255.6 ± 14 mPa·s
303.15 K, 100 kPa, x1 = 0.333	290.9 ± 13 mPa·s
303.15 K, 101 kPa, x1 = 0.2	259.6 ± 19 mPa·s
303.15 K, 101 kPa, x1 = 0.25	250.4 ± 18 mPa·s
303.15 K, 101 kPa, x1 = 0.33	239 ± 17 mPa·s
303.97 K, 101.33 kPa, x2 = 0.7	128 ± 30 mPa·s
303.97 K, 101.33 kPa, x2 = 0.8	81.55 ± 22 mPa·s
304.77 K, 101.33 kPa, x2 = 0.7	121.8 ± 28 mPa·s
304.87 K, 101.33 kPa, x2 = 0.8	76.53 ± 21 mPa·s
305.64 K, 101.33 kPa, x2 = 0.7	114.5 ± 26 mPa·s
305.7 K, 101.33 kPa, x2 = 0.8	72.8 ± 19 mPa·s
306.52 K, 101.33 kPa, x2 = 0.7	109 ± 25 mPa·s
306.58 K, 101.33 kPa, x2 = 0.8	69.11 ± 19 mPa·s
307.07 K, 101 kPa, x1 = 0.333	187 ± 5 mPa·s
307.4 K, 101.33 kPa, x2 = 0.7	103.9 ± 24 mPa·s
307.47 K, 101.33 kPa, x2 = 0.8	65.09 ± 18 mPa·s
308 K, 101 kPa, x1 = 0.3333	312 ± 13 mPa·s
308.15 K, 100 kPa, x1 = 0.3	198 ± 9 mPa·s
308.15 K, 100 kPa, x1 = 0.33	190.3 ± 8.6 mPa·s
308.15 K, 100 kPa, x1 = 0.333	216.8 ± 9.6 mPa·s
308.15 K, 101 kPa, x1 = 0.2	192.5 ± 12 mPa·s
308.15 K, 101 kPa, x1 = 0.25	187 ± 11 mPa·s
308.15 K, 101 kPa, x1 = 0.33	181.2 ± 10 mPa·s
308.15 K, 101.3 kPa, x2 = 0.7	194.5 ± 12 mPa·s
308.15 K, 101.33 kPa, x2 = 0.7	96.86 ± 22 mPa·s
308.34 K, 101.33 kPa, x2 = 0.8	61.7 ± 16 mPa·s
309.15 K, 101.33 kPa, x2 = 0.8	58.96 ± 16 mPa·s
309.17 K, 101.33 kPa, x2 = 0.7	92 ± 20 mPa·s
309.94 K, 101.33 kPa, x2 = 0.7	88.35 ± 20 mPa·s
310 K, 101.33 kPa, x2 = 0.8	56.2 ± 15 mPa·s
310.82 K, 101.33 kPa, x2 = 0.8	53.22 ± 14 mPa·s
310.85 K, 101.33 kPa, x2 = 0.7	82.38 ± 18 mPa·s
311.67 K, 101.33 kPa, x2 = 0.8	50.6 ± 13 mPa·s
311.74 K, 101.33 kPa, x2 = 0.7	79.15 ± 17 mPa·s
312.13 K, 101 kPa, x1 = 0.333	144.5 ± 3.1 mPa·s
312.62 K, 101.33 kPa, x2 = 0.7	74.77 ± 16 mPa·s
312.66 K, 101.33 kPa, x2 = 0.8	47.68 ± 13 mPa·s
313 K, 101 kPa, x1 = 0.3333	222.4 ± 8.5 mPa·s
313.15 K, 100 kPa, x1 = 0.3	148 ± 6 mPa·s
313.15 K, 100 kPa, x1 = 0.33	145.1 ± 5.3 mPa·s
313.15 K, 100 kPa, x1 = 0.333	165.7 ± 13 mPa·s and 161.3 ± 7 mPa·s
313.15 K, 101 kPa, x1 = 0.167	119 ± 12 mPa·s
313.15 K, 101 kPa, x1 = 0.2	144.2 ± 6.9 mPa·s and 90 ± 9 mPa·s
313.15 K, 101 kPa, x1 = 0.25	140.9 ± 6.6 mPa·s and 93 ± 9 mPa·s
313.15 K, 101 kPa, x1 = 0.33	138.6 ± 6.5 mPa·s
313.15 K, 101 kPa, x1 = 0.333	85 ± 9 mPa·s
313.4 K, 101.33 kPa, x2 = 0.7	70.27 ± 14 mPa·s
313.68 K, 101.33 kPa, x2 = 0.8	45.67 ± 9.3 mPa·s
314.3 K, 101.33 kPa, x2 = 0.7	67.45 ± 15 mPa·s
314.49 K, 101.33 kPa, x2 = 0.8	43.42 ± 11 mPa·s
315.23 K, 101.33 kPa, x2 = 0.8	41.47 ± 11 mPa·s
315.26 K, 101.33 kPa, x2 = 0.7	64.39 ± 14 mPa·s
315.79 K, 101.33 kPa, x2 = 0.8	40.01 ± 8.1 mPa·s
316.19 K, 101.33 kPa, x2 = 0.7	60.28 ± 12 mPa·s
316.96 K, 101.33 kPa, x2 = 0.8	38.19 ± 7.8 mPa·s
317.25 K, 101.33 kPa, x2 = 0.7	57.92 ± 12 mPa·s
317.43 K, 101 kPa, x1 = 0.333	110.5 ± 1.9 mPa·s
317.78 K, 101.33 kPa, x2 = 0.8	35.41 ± 9.3 mPa·s
317.92 K, 101.33 kPa, x2 = 0.7	55.4 ± 12 mPa·s
318 K, 101 kPa, x1 = 0.3333	159.6 ± 5.3 mPa·s
318.15 K, 100 kPa, x1 = 0.3	116 ± 4 mPa·s
318.15 K, 100 kPa, x1 = 0.333	125.2 ± 5.3 mPa·s
318.15 K, 101 kPa, x1 = 0.2	109 ± 4 mPa·s
318.15 K, 101 kPa, x1 = 0.25	107.2 ± 3.8 mPa·s
318.15 K, 101 kPa, x1 = 0.33	106.9 ± 3.8 mPa·s
318.15 K, 101 kPa, x1 = 0.333	91 ± 3.9 mPa·s
318.15 K, 101.3 kPa, x2 = 0.7	114.4 ± 4.2 mPa·s
318.42 K, 101.33 kPa, x2 = 0.8	35.11 ± 9.2 mPa·s
318.59 K, 101.33 kPa, x2 = 0.7	53.65 ± 12 mPa·s
319.37 K, 101.33 kPa, x2 = 0.8	33.09 ± 8.8 mPa·s
319.53 K, 101.33 kPa, x2 = 0.7	51.45 ± 11 mPa·s
320.2 K, 101.33 kPa, x2 = 0.8	31.05 ± 6.3 mPa·s
320.45 K, 101.33 kPa, x2 = 0.7	48.65 ± 9.9 mPa·s
321.14 K, 101.33 kPa, x2 = 0.8	29.69 ± 6 mPa·s
321.38 K, 101.33 kPa, x2 = 0.7	46.23 ± 9.4 mPa·s
322.2 K, 101.33 kPa, x2 = 0.7	44.48 ± 9 mPa·s
322.23 K, 101 kPa, x1 = 0.333	93.48 ± 1.4 mPa·s
323 K, 101 kPa, x1 = 0.3333	123.5 ± 3.7 mPa·s
323.02 K, 101.33 kPa, x2 = 0.7	42.72 ± 8.7 mPa·s
323.15 K, 100 kPa, x1 = 0.3	89.7 ± 2.5 mPa·s
323.15 K, 100 kPa, x1 = 0.33	88.7 ± 1.8 mPa·s
323.15 K, 100 kPa, x1 = 0.333	98.89 ± 4.1 mPa·s
323.15 K, 101 kPa, x1 = 0.2	83.04 ± 2.1 mPa·s
323.15 K, 101 kPa, x1 = 0.25	82.18 ± 2.1 mPa·s
323.15 K, 101 kPa, x1 = 0.33	83.12 ± 2.1 mPa·s
323.15 K, 101.3 kPa, x2 = 0.7	88.65 ± 2.3 mPa·s
